Data from patent US20120040920A1, “OLIGOSACCHARIDE ALDONIC ACIDS AND THEIR TOPICAL USE” (priority 1999, published 2012).

Assays:
[1] = antioxidant property, banana peel test method; conditions: 2×2 cm peels in 5 ml 0.1 M test solution; water control tan within 4 hours
Source text: (§1) An antioxidant may be defined as a substance capable of preventing or inhibiting oxidation. […] The antioxidant property is readily determined by using any one of the following test methods: prevention or retardation of air oxidation of (a) anthralin, (b) hydroquinone, or (c) banana peel. A freshly prepared anthralin solution or cream is bright yellow, and an air oxidized one is brownish or black. A hydroquinone solution or cream is colorless or white color, and an air oxidized one is brownish or black. A freshly peeled banana peel is light yellow in color and an oxidized one ranges in color from tan, dark tan, brown to brownish black.
For example, in control experiments, fresh banana peels cut into sizes of 1×2 cm in 50 mm plastic petri dishes containing 5 ml water at neutral or acidic pH changed in color from white-yellowish to tan within 6 hours at room temperature, and changed to dark tan color during the next period of 24 to 72 hours.
Antioxidant property of an oligosaccharide aldonic acid may also be determined by utilizing banana peel test method as follows.
A fresh ripe banana peel cut into sizes of 2×2 cm has the outer layer light yellow in color. These freshly cut banana peels after exposed to air or immersed in an aqueous solution without an antioxidant in 50 mm plastic petri dishes rapidly changed in color from yellowish to tan within 3 hours, dark tan within 24 hours and brown black after 72 hours. A test substance including a positive control such as vitamin C, citric acid or N-acetylcysteine was prepared as 0.1 M concentration, and each test dish contained 5 ml test solution. Freshly cut banana peels 2×2 cm in sizes were immersed in 5 ml test solutions including known antioxidants and vehicle controls with pH at 7.0 and 4.0. […] The same results were also found for the known antioxidant substances; vitamin C, citric acid and N-acetylcysteine.

[2] = antioxidant property, hydroquinone test method; type: physicochemical; conditions: oil-in-water cream, 2% hydroquinone, test substance 0.4 M, room temperature, 5 days
Source text: as §1
Antioxidant property of an oligosaccharide aldonic acid may also be determined by utilizing hydroquinone test method as follows. Hydroquinone also known as 1,4-dihydroxybenzene is a white powder, and a composition containing hydroquinone without a suitable antioxidant is chemically unstable even at room temperature. For example, hydroquinone 2% in an oil-in-water cream changed in color from white to grey within 2 hours, and the cream became light brown within 48 hours and dark brown after 72 hours at room temperature.

[3] = gel matrix formation on evaporation of an aqueous solution at room temperature; type: physicochemical; conditions: for gel matrix formation: 1 g in 1 ml water, 20-25° C., slow evaporation; for acid content of the gel film / water retained in the gel film (gel matrix): by weight, 1 g acid in 1 ml water evaporated at room temperature; for original water evaporated: 1 g acid in 1 ml water, room temperature
Source text: In contrast to an alpha hydroxyacid and polyhydroxyacid, an oligosaccharide aldonic acid can form a gel matrix when its aqueous solution is evaporated at room temperature. The transparent gel obtained retains certain amount of water forming a clear gel matrix. The amount of water retention depends on individual oligosaccharide aldonic acid. Examples of gel matrix preparations are provided below.
In one example, a gel matrix can be formed when aqueous solution comprising an oligosaccharide aldonic acid is evaporated at room temperature. The transparent gel thus obtained retains certain amount of water forming a clear gel matrix. The amount of water retention depends on individual oligosaccharide aldonic acid. For example, maltobionic acid 1 g in a beaker was dissolved in water 1 ml, and the solution thus obtained was left at room temperature. Fifty percent of the original water had been evaporated at the end of 24 hours, and 57% at the end of 48 hours, and 60% at the end of 72 hours, and no more or minimal evaporation of water could be detected after 72 hours. A clear gel film thus obtained contained 29% water complexed with maltobionic acid molecules. In the same manner, lactobionic acid formed a clear gel matrix with 14% water molecules and cellobionic acid formed a transparent gel with 7% water molecules.
A typical experiment to determine a gel matrix formation of an oligosaccharide aldonic acid may be carried out as follows.
Maltobionic acid 1 g in a beaker of 3.6 cm diameter and 3.6 cm height was dissolved in water 1 ml, and the solution thus obtained was left at room temperature between 20-25° C. to allow a slow evaporation of the water. […] The continuous transparent film thus obtained consisted of 71% maltobionic acid and 29% water by weight, and was formed as a complex gel matrix between maltobionic acid molecules and water molecules.

[4] = antioxidant property, anthralin test method; type: physicochemical; conditions: oil-in-water cream, 0.4% anthralin, test substance 0.1 M, 24 hours
Source text: as §1
Antioxidant property of an oligosaccharide aldonic acid may be determined by utilizing anthralin test method as follows.
Anthralin also known as dithranol is a yellowish powder, and a composition containing anthralin without a suitable antioxidant is chemically unstable even at room temperature. For example, anthralin 0.05% in an oil-in-water cream changed in color from yellow to gray within 24 hours at room temperature, and the cream became brownish within 48 hours. Under anhydrous condition, anthralin 0.05% ointment prepared from white petrolatum 2 parts and mineral oil 1 part by weight changed in color from bright yellow to grayish yellow within 24 hours, and the ointment became brownish after 12 days at room temperature.
Based on the above observations, an oil-in-water cream containing 0.4% anthralin with or without a known antioxidant was used as a positive or vehicle control.

[5] = tested on: chronic atopic eczema and pruritic dry skin; test: topical treatment of chronic atopic eczema and pruritic dry skin; type: in vivo, human; conditions: 17% cream twice daily, person
Source text: A subject with chronic atopic eczema and pruritic dry skin topically applied twice daily maltobionic acid 17% cream to itchy skin areas of eczema and dry skin lesions for two weeks.

acute erythema on thighs = test: topical treatment of acute erythema after hot shower with alkaline soap; type: in vivo, human; conditions: 3% partially neutralized cream, left thigh, person; control side persisted
Source text: A subject with sensitive skin developed acute erythema on their both thighs after taking hot shower using alkaline soap. They applied 3% partially neutralized maltobionic acid cream on their left thigh and a control cream on their right thigh.

[6] = tested on: xerosis with flaky dry skin; test: topical treatment of xerosis of forearms; type: in vivo, human; conditions: 5% water-in-oil cream twice daily, two weeks, person
Source text: A subject, having xerosis with flaky dry skin condition of their forearms topically applied twice daily maltobionic acid 5% water-in-oil cream for two weeks.

Compound | colour change of banana peels [1] | colour change of hydroquinone cream [2] | gel matrix formation [3] | colour change of anthralin cream [4] | other results
O=C(O)CC(O)(CC(=O)O)C(=O)O [citric acid, reference compound] | same results | did not change color |  |  | 
O=C(O)[C@H](O)[C@@H](O)[C@H](O)[C@H](O)CO [gluconic acid, reference compound] |  |  | did not form any form of a gel matrix |  | 
O=C(O)[C@H](O)[C@@H](O)[C@H](O[C@@H]1O[C@H](CO)[C@@H](O)[C@H](O)[C@H]1O)[C@H](O)CO [cellobionic acid] |  | did not change color | clear continuous gel film was formed | did not change the color | acid content of the gel film [3]: 93%; water retained in the gel film (gel matrix) [3]: 7%
O=C1O[C@H]([C@@H](O)CO)C(O)=C1O [vitamin C, reference compound] | same results | did not change color |  | did not change the color | 
O=C(O)C(=O)O [oxalic acid, reference compound] |  |  |  | did not change the color | 
O=C(O)[C@H](O)[C@@H](O)[C@H](O[C@@H]1O[C@H](CO)[C@H](O)[C@H](O)[C@H]1O)[C@H](O)CO [maltobionic acid] | did not change color | did not change color | clear continuous gel film was formed | did not change the color | eczema lesions ([5]; after two weeks): improved significantly; condition of treated skin ([5]; within a week): became smooth and less dry and itchy; original water evaporated ([3]; end of 24 hours): Fifty; original water evaporated ([3]; end of 48 hours): 57%; original water evaporated ([3]; end of 72 hours): 60%; original water evaporated ([3]; end of 96 hours): 60.5%; water retained in the gel film (gel matrix) [3]: 29%; acid content of the gel film ([3]; listed as Maltobionic acid): 71%; water retained in the gel film (gel matrix) ([3]; listed as Maltobionic acid): 29%; erythema and itch (acute erythema on thighs): disappeared within a few minutes; dry skin condition [6]: dry skin condition disappeared completely
CC(=O)N[C@@H](CS)C(=O)O [N-acetylcysteine, reference compound] | same results | did not change color |  |  | 
